Assays:
Type in all cases: in vivo, corn
[1] = system: heterozygous resistant plants (Rr, Glyphosate-resistance event GA21); experiment: Foliar glyphosate spray of putative heterozygous resistant plants, plant mortality (Example 1)
From the text: (§1) Progeny of a cross between a homozygous resistant plant (RR) and a homozygous susceptible plant (rr) were planted at the Garst Research Centre near Slater, Iowa, and at the Hawaii Research Centre near Kunia, Hi. It was expected that none of the progeny would segregate for resistance to foliar applications of glyphosate. To test this, the progeny growing at the IA test site were sprayed with glyphosate at a rate of 64 oz per acre during the V5 and V6 stages of growth (26 days after planting). At the same time and rate, several plants in a row of known susceptible plants were sprayed. All of the sprayed plots were examined for plant mortality 7 days after spraying. As expected, all of the susceptible check plants were dead and while all of the putative heterozygous resistant plants were alive (Table 1).
(§2) A second application of 32oz per acre was applied to the heterozyous resistant plants at the V7 to V8 stage of growth (9 days later). These plants comprised the “Sprayed” class in subsequent experiments. In HI, none of the plants were sprayed with glyphosate and these plants comprised the “Unsprayed” class in subsequent experiments. At both locations, crosses were made between the heterozygous resistant plants and homozygous susceptible plants.

[2] = system: progeny of crosses between heterozygous resistant plants and homozygous susceptible plants; experiment: Evaluation of progeny from Sprayed and Unsprayed classes: counts of resistant and susceptible plants after glyphosate spray (Example 2); settings: progeny sprayed 64 oz per acre V3-V4, counted ten days post-application
From the text: as §2
Progeny of the crosses from each class were planted at the HI location. All progeny plants from each class were sprayed with glyphosate at a rate of 64 oz per acre during the V3 to V4 stages of growth. Ten days post-application, counts of resistant and susceptible plants were made for each class. The expected segregation, 1:1 resistant to susceptible, was compared to the observed segregation for each class (Table 2).

[3] = system: homozygous susceptible plants (rr); experiment: Foliar glyphosate spray of known susceptible check plants, plant mortality (Example 1)
From the text: as §1

[4] = progeny of Unsprayed class (parents not sprayed), 182 plants

## O=C(O)CNCP(=O)(O)O [glyphosate]
[1]; class Heterozygous Resistant, 64 oz per acre at V5 and V6 stages (26 days after planting), examined 7 days after spraying
  Observed Segregation: All Resistant
[1]; putative heterozygous resistant plants, 64 oz per acre, V5 and V6, 7 days after spraying
  plant mortality: alive
[2]; progeny of Sprayed class (parents 64 oz per acre V5-V6 plus 32 oz per acre V7-V8), 504 plants
  Observed Segregation: Resistant plants: 504
[2]; [4]
  Observed Segregation: Resistant plants: 100
  Observed Segregation: Susceptible plants: 82
[3]; class Homozygous Susceptible, 64 oz per acre at the same time and rate, examined 7 days after spraying
  Observed Segregation: All Susceptible
[3]; susceptible check plants, 64 oz per acre, 7 days after spraying
  plant mortality: dead

From patent publication US20040241860A1, “Method of breeding glyphosate resistant plants” (Advanta Technology Limited, priority 1998, published 2004)
